Results: patent US9394233B2, “ROS-activated compounds as selective anti-cancer therapeutics” (University of Cincinnati, priority 2012, dated 2016)
Read-outs that look alike come from different tables or passages of the source.

Tests used:
HeLa cells = experiment: HeLa cell viability, MTT assay; assay type: cell-based; conditions: Homo sapiens, 50% reduction in percent of viable HeLa cells, read-out: IC50 against HeLa Cells
Protocol: Table 1 sets forth ROS-Activated compounds of the present invention, together with their IC50 values corresponding to a 50% reduction in the percent of viable HeLa cells in vitro as measured via MTT assay.
All synthesized compounds were purified to greater than 98% purity prior to cell testing. HeLa cell viability assays were performed using an MTT assay.
The general structure of the ROS-activated compounds disclosed herein was probed to determine how positions in the structure alter potency in aqueous media. Compounds were screened against HeLa cells to determine IC50 values. Cell viability was monitored by an MTT dye that forms a purple formazan product in viable cells that are undergoing metabolism. […] Errors reported are between two separate experiments; independent curve-fitting had r greater than 0.95).

MA9.3 AML cells = experiment: AML cytotoxicity, MTT assay on MA9.3 AML cell line; assay type: cell-based, human; conditions: read-out: IC50 against MA9.3 AML cells
Excerpt: (§1) To assess the anti-cancer activity against AML, transformed cells were compared to closely related, non-transformed counterparts. In the case of AML, the generally accepted non-transformed cell of origin is the human CD34+ blood stem/progenitor cell. Assessing potency against normal blood stem cells is important since, without selective cytotoxicity, an agent will yield reduced efficacy and therapeutic potential. […] Therefore, a comparison of current agents and the ROS-activated compounds disclosed herein was carried out. (FIG. 3). Cytotoxicity was measured via MTT assay on CD34+ blood stem/progenitor cells (grey lines) and on the MA9.3 AML cell line (black lines), which was derived from the transformation of human CD34+ cells by introduction of the leukemia oncogene MLL-AF9.

[1] = system: human CD34+ blood stem/progenitor cells; experiment: Cytotoxicity, MTT assay on CD34+ blood stem/progenitor cells; assay type: cell-based; conditions: normal blood stem cells, read-out: IC50 against CD34+ blood stem/progenitor cells
Excerpt: as §1

392-nucleotide dsDNA = experiment: Primer extension assay on 392-nucleotide dsDNA (DNA modification); assay type: biochemical; conditions: dsDNA treated with agent; compound 25 followed by oxidative activation (Na2IrCl6)
[2] = Oxidation and ROS-dependent hydrolysis of compound 3, monitored by reverse-phase HPLC; assay type: physicochemical
Excerpt: The oxidative and ROS-activation of the instantly disclosed compounds was investigated. Water, one of the simplest nucleophile substrates, was examined under different oxidative conditions (FIG. 5). A model ROS-activated compound, compound 3, was used to explore the chemical reactivity of these agents (FIG. 5A).
Hydrolysis of compound 3 as a function of time was quantified by separation of the reaction products by reverse-phase HPLC (FIG. 5B). […] To obtain quantifiable data, time points were taken daily over one week.
Addition of the one-electron oxidant, […], led to quantitative hydrolysis of compound 3 with a half-life of 0.4±0.2 hours (FIG. 5B). The oxidation potential of Ir(IV) is 0.7 volts vs. Ag/AgCl making it an appropriate choice for oxidation of hydroquinone derivatives. In additional to oxidation, cells produce reactive oxygen species in the forms of hydroxyl radical and singlet oxygen. Copper and hydrogen peroxide can be used to produce hydroxyl radical. […] The extent of hydrolysis was dependent on the hydrogen peroxide concentration and was slow due to lack of ascorbate (data not shown). Oxidases like horseradish peroxidase reduce molecular oxygen to either hydrogen peroxide or water and at the same time oxidize a substrate with an appropriate potential. The oxidation of compound 3 was difficult to measure via HPLC since after one minute approximately half (53±13%) of compound 3 was hydrolyzed.

Drosophila = Drosophila survival after microinjection, Ercc1 RNAi knockdown versus control; conditions: 0.5 μL of 10 mM injected
NCI-60 cell panel = experiment: NCI-60 cell panel, Sulforhodamine B growth inhibition; assay type: cell-based; conditions: distribution of GI50 over NCI-60 panel
Protocol: (§2) Compounds 25 and 9 were evaluated for effects on the viability of the cell lines in the NCI-60 cell panel. […] Data is reported as growth inhibition GI50, rather than IC50, to reflect the change in cell counts relative to the starting number of cells.

leukemia cell lines = experiment: NCI-60 Sulforhodamine B growth inhibition, leukemia cell lines; assay type: cell-based; conditions: median in all leukemia cell lines tested
Protocol: as §2
(§3) Growth inhibition pattern induced by 25 and 9 based on the type of cancer was also analyzed. […] The majority of leukemia and renal cancer cell lines were above the median, indicating enhanced sensitivity to ROS-activating compounds. The current results further substantiate renal carcinoma as a potential target.

CCRF-CEM = experiment: NCI-60 Sulforhodamine B growth inhibition, CCRF-CEM; assay type: cell-based; conditions: Homo sapiens, ALL model line
Protocol: as §2, §3

MOLT-4 = experiment: NCI-60 Sulforhodamine B growth inhibition, MOLT-4; assay type: cell-based; conditions: Homo sapiens; MOLT-4, ALL model line
Protocol: as §2, §3

RPMI-8226 = experiment: NCI-60 Sulforhodamine B growth inhibition, RPMI-8226; assay type: cell-based; conditions: Homo sapiens; RPMI-8226, plasmacytoma and myeloma cell line
Protocol: as §2, §3

HL-60 = experiment: NCI-60 Sulforhodamine B growth inhibition, HL-60; assay type: cell-based; conditions: Homo sapiens; HL-60, acute promyelocytic leukemia model
Protocol: as §2, §3

[3] = system: renal and CNS cancer cell lines; experiment: Sulforhodamine B viability assay, renal and CNS cancer cell lines; assay type: cell-based; conditions: panels of renal and CNS cancer cell lines, errors less than 25%

## COc1ccc(N(C)CCOc2ccc(O)cc2)cc1 [Compound 6, 4-(2-((4-methoxyphenyl)(methyl)amino)ethoxy)phenol]
HeLa cells
  IC50: 13 µM

## COc1ccc(N(CCOc2ccc(O)cc2)CCOc2ccc(O)cc2)cc1 [Compound 26, 4,4′-((((4-methoxyphenyl)azanediyl)bis(ethane-2,1-diyl))bis(oxy))diphenol]
HeLa cells
  IC50: 15 µM

## CCN(CCOc1cccc(O)c1)c1ccccc1 [Compound 18, 3-(2-(ethyl(phenyl)amino)ethoxy)phenol]
HeLa cells
  IC50: 44 µM

## CCN(CCCOc1ccc(O)cc1)c1ccccc1 [Compound 10, 4-(3-(ethyl(phenyl)amino)propoxy)phenol]
HeLa cells
  IC50: 16 µM

## CN(CCOc1ccc(O)cc1)c1ccccc1 [Compound 2, 4-(2-(methyl(phenyl)amino)ethoxy)phenol]
HeLa cells
  IC50: 18 µM

## Oc1ccc(OCCNc2ccccc2)cc1 [Compound 1, 4-(2-(phenylamino)ethoxy)phenol]
HeLa cells
  IC50: 30 µM

## CCN(CCOc1ccccc1O)c1ccccc1 [Compound 19, 2-(2-(ethyl(phenyl)amino)ethoxy)phenol]
HeLa cells
  IC50: 77 µM

## CCN(CCSc1ccc(O)cc1)c1ccccc1 [Compound 15, 4-((2-(ethyl(phenyl)amino)ethyl)thio)phenol]
HeLa cells
  IC50: 46 µM

## CCN(CC(=O)Nc1ccc(O)cc1)c1ccccc1 [Compound 17, 2-(ethyl(phenyl)amino)-N-(4-hydroxyphenyl)acetamide]
HeLa cells
  IC50: 108 µM

## CC(=O)Oc1ccc(OCCN(CCOc2ccc(OC(C)=O)cc2)c2ccccc2)cc1 [Compound 29, (((phenylazanediyl)bis(ethane-2,1-diyl))bis(oxy))bis(4,1-phenylene) diacetate]
HeLa cells
  IC50: 12 µM

## CCN(CCOc1ccc(OC)cc1)c1ccccc1 [Compound 24, N-ethyl-N-(2-(4-methoxyphenoxy)ethyl)aniline]
HeLa cells
  IC50: > 125 µM

## CC(C)N(CCOc1ccc(O)cc1)c1ccccc1 [Compound 4, 4-(2-(isopropyl(phenyl)amino)ethoxy)phenol]
HeLa cells
  IC50: 53 µM

## O=C(O)CCCc1ccc(N(CCCl)CCCl)cc1 [chlorambucil]
MA9.3 AML cells; Homo sapiens
  IC50: 8700 ± 300 nM
[1]; Homo sapiens
  IC50: 11 ± 1 µM

## COc1cccc2c1C(=O)c1c(O)c3c(c(O)c1C2=O)C[C@@](O)(C(=O)CO)C[C@@H]3O[C@H]1C[C@H](N)[C@H](O)[C@H](C)O1 [doxorubicin]
MA9.3 AML cells; Homo sapiens
  IC50: 86 ± 50 nM
[1]; Homo sapiens
  IC50: 0.076 ± 0.018 µM

## COC(=O)CCCc1ccc(N(CCOc2ccc(O)cc2)CCOc2ccc(O)cc2)cc1 [Compound 27, methyl 4-(4-(bis(2-(4-hydroxyphenoxy)ethyl)amino)phenyl)butanoate]
HeLa cells
  IC50: 77 µM

## COc1ccc(NCCOc2ccc(O)cc2)cc1 [Compound 5, 4-(2-((4-methoxyphenyl)amino)ethoxy)phenol]
HeLa cells
  IC50: 24 µM

## CCN(CCOc1ccc(NC(C)=O)cc1)c1ccccc1 [Compound 21, N-(4-(2-(ethyl(phenyl)amino)ethoxy)phenyl)acetamide]
HeLa cells
  IC50: 45 µM

## CN(CCOc1ccc(O)cc1)Cc1ccccc1 [Compound 8, 4-(2-(benzyl(methyl)amino)ethoxy)phenol]
HeLa cells
  IC50: 30 µM

## O=C1C=CC(=O)C=C1 [benzoquinone, reference compound]
HeLa cells
  IC50: 227 µM

## CCN(CCOc1ccc(N2CCCCC2)cc1)c1ccccc1 [Compound 22, N-ethyl-N-(2-(4-(piperidin-1-yl)phenoxy)ethyl)aniline]
HeLa cells
  IC50: > 125 µM

## O=C(O)CCCc1ccc(N(CCOc2ccc(O)cc2)CCOc2ccc(O)cc2)cc1 [Compound 28, 4-(4-(bis(2-(4-hydroxyphenoxy)ethyl)amino)phenyl)butanoic acid]
HeLa cells
  IC50: 67 µM

## CCN(CCCCOc1ccc(O)cc1)c1ccccc1 [Compound 12, 4-(4-(ethyl(phenyl)amino)butoxy)phenol]
HeLa cells
  IC50: 14 µM

## N.N.[Cl][Pt][Cl] [cisplatin]
MA9.3 AML cells
  IC50: 14000 ± 700 nM
[1]
  IC50: 15 ± 2 µM
392-nucleotide dsDNA
  full-length extension product yield: no full-length extension product

## Oc1ccc(OCCNc2ccc(Br)cc2)cc1 [Compound 7, 4-(2-((4-bromophenyl)amino)ethoxy)phenol]
HeLa cells
  IC50: 31 µM

## CN(CCCSc1ccc(O)cc1)c1ccccc1 [Compound 16, 4-((3-(methyl(phenyl)amino)propyl)thio)phenol]
HeLa cells
  IC50: 44 µM

## CN(CCCCCOc1ccc(O)cc1)c1ccccc1 [Compound 13, 4-(5-(methyl(phenyl)amino)pentyloxy)phenol]
HeLa cells
  IC50: 9 µM

## Oc1ccc(O)cc1 [Hydroquinone, reference compound]
HeLa cells
  IC50: 161 µM

## CN(CCCCOc1ccc(O)cc1)c1ccccc1 [Compound 11, 4-(4-(methyl(phenyl)amino)butoxy)phenol]
HeLa cells
  IC50: 8 µM

## CCN(CCOc1ccc(O)cc1)c1ccccc1 [Compound 3, 4-(2-(ethyl(phenyl)amino)ethoxy)phenol]
HeLa cells
  IC50: 23 µM
[2]; one-electron oxidant Na2Ir2Cl6 added, addition of one-electron oxidant Na2Ir2Cl6
  half-life: 24 ± 12 min
[2]; oxidation by copper chloride-hydrogen peroxide (hydroxyl radical)
  half-life: 726 min
[2]; phosphate buffer, no oxidant, assuming first order kinetics
  half-life: 41600 ± 2520 min
Drosophila; Drosophila lacking Ercc1 expression (da-GAL4/UAS-Ercc1RNAi)
  death on Day 1: 60%
Drosophila; control flies with wild-type Ercc1 expression (da-GAL4/+)
  death on Day 1: 10%

## CN(CCCOc1ccc(O)cc1)c1ccccc1 [Compound 9, 4-(3-(methyl(phenyl)amino)propoxy)phenol]
HeLa cells
  IC50: 7 µM
NCI-60 cell panel
  range of GI50 values: 53 fold
Leukemia cell lines
  GI50: 1900 nM
CCRF-CEM
  GI50: 263 nM
MOLT-4
  GI50: 2000 nM
RPMI-8226
  GI50: 1200 nM
HL-60
  GI50: 900 nM
MA9.3 AML cells; Homo sapiens
  IC50: 700 ± 200 nM
[1]; Homo sapiens
  IC50: 5.4 ± 0.9 µM
[3]
  IC50: micromolar range

## CCN(CCOc1ccc(N)cc1)c1ccccc1 [Compound 20, N-(2-(4-aminophenoxy)ethyl)-N-ethylaniline]
HeLa cells
  IC50: > 125 µM

## Nc1ccn([C@@H]2O[C@H](CO)[C@@H](O)[C@@H]2O)c(=O)n1 [ara-C, cytosine arabinoside]
MA9.3 AML cells
  IC50: 920 ± 30 nM
[1]
  IC50: 0.59 ± 0.09 µM
